Measurements taken from patent US20240238305A1, “FORMULATIONS OF 3-((3-(4-(2-(ISOBUTYLSULFONYL)PHENOXY)-3-(TRIFLUOROMETHYL)PHENYL)-1,2,4-OXADIAZOL-5-YL)METHYL)-5,5-DIMETHYL-1-(2-MORPHOLINOETHYL)IMIDAZOLIDINE-2,4-DIONE” (Novartis AG, priority 2021, published 2024).

How the values were obtained:
SCD1 = assay: Measurement of SCD1 expression in SZ95-SCD1-HiBit cells (HiBiT assay); format: cell-based, human
Experimental: SCD1 expression levels in SZ95 cells were quantitated using the HiBiT system (Promega) in which a small peptide sequence (SmBiT) with a larger protein (LgBiT) reconstitutes luciferase activity and can generate a luminescent signal used for quantitation. […] The gRNA targeting sequence used was […] (SEQ ID NO: 3) and the SCD1 insertion oligonucleotide encoding the SmBiT sequence was:
SZ95-SCD1-HiBit cells were seeded in 384-well cell culture white plates at a density of 3000 cells/[…]. Water was added to edge wells to avoid evaporation. Cells were incubated in a humidified incubator with 5% CO2 at 37° C. overnight. Tested compounds were diluted at a ratio of 1:3 in DMSO using an Agilent BRAVO Automated Liquid Handling Platform and, after further serial dilutions, added to cells at final concentrations starting from 18 μM. 2-(3-(3-((2-chloro-3-(trifluoromethyl)benzyl)(2,2-diphenylethyl)amino)propoxy)phenyl)acetic acid was used as a reference compound in each plate. Cells in the assay plate were incubated in a humidified incubator with 5% CO2 at 37° C. for 48h.
The assay plates were removed from the incubator and allowed to equilibrate to room temperature. […] Plates were placed on an orbital shaker at a speed of 300-600 rpm for 10 min at room temperature, and read on an EnVision Plate Reader using luminescence detection with a 1 second read time. […]

SZ95 sebocytes = assay: Sentinel Lipid Assay (SLA), global desaturation index; format: cell-based, human
Experimental: The sentinel lipid assay was used quantify the change in the global desaturation index in SZ95 sebocytes upon administration of Compound 1. The assay measures a smaller subset of lipid analytes in meibum (termed “sentinel lipids”) which would model the global changes the population of both saturated and desaturated lipids in the cells. In order to define this smaller subset of lipids, a complete lipid profile was recorded on dose response curves (eight levels from 4 nM to 10 uM) of Compound 1. […]
A medium throughput assay was created using this reduced set of sentinel lipids. […] Lipids were extracted from the cells using a 1:1 mixture of methylene chloride/methanol containing 10 nM of deuterated standards of triglycerides, which are used as internal standards for quantitating the lipid abundance. […] The abundance of the sentinel lipids and the internal standards are measured using multiple reaction monitor mode (MRM) on a triple quadrupole mass spectrometer. […] In order to compare compounds from multiple batches with one another, the measure raw desaturation index was normalized by dividing it by the desaturation index of the DMSO dosed cells, and all data was assessed as the fraction by which the compound increases the desaturation index above 1. […]

[1] = normalized to reference compound Amax of 100%

O=C(O)Cc1cccc(OCCCN(Cc2cccc(C(F)(F)F)c2Cl)CC(c2ccccc2)c2ccccc2)c1 [Reference, 2-(3-(3-((2-chloro-3-(trifluoromethyl)benzyl)(2,2-diphenylethyl)amino)propoxy)phenyl)acetic acid]
HiBit Amax (SCD1; SZ95-SCD1-HiBit cells, 48h, compared to reference compound): 95.1
HiBit Normalized Amax (SCD1; [1]): 100.0%
SLA Amax (SZ95 sebocytes; SZ95 cells, 72h, compared to reference compound): 96.0
SLA Normalized Amax (SZ95 sebocytes; [1]): 100.0%
